Source: paper PMC9424909, “Rutin alleviated acrolein-induced cytotoxicity in Caco-2 and GES-1 cells by forming a cyclic hemiacetal product” (Frontiers in Nutrition, 2022)
Values joined by “and” are separate entries in the source; they are usually repeats but may differ in a detail not shown here. Equal entries are not always repeated. Where two headings read alike, the source gives them in different places.

Columns and labels:
Caco-2 cells [1] = assay: apoptosis assay, Annexin-V FITC/PI flow cytometry; type: cell-based, human; details: for apoptotic cells / number of viable cells: 24 h
Method: (§1) The Caco-2 cell line and GES-1 cell line were obtained from iCell Bioscience (Shanghai, China). As described by Chai et al. ([40]) with a bit modification, the Caco-2 cells were cultured within a medium composed of DMEM supplemented with 1% (v/v) NEAA, 10% (v/v) FBS, and penicillin and streptomycin (100 U/mL). GES-1 cells were cultivated according to Xu et al. ([41]) with slight modifications as follows: DMEM medium including 1% (v/v) NEAA, 10% (v/v) FBS, and penicillin and streptomycin (100 U/mL). Cells were all maintained in a humidified incubator containing 5% CO2 and 95% air at 37°C.
(§2) Cell apoptosis assay was conducted in refer to Abas et al. ([42]) with modifications. In short, cells at a density of 1 × 10^4 cells/well were seeded in 96-well plates and incubated overnight, followed by exposure to different concentrations of ACR and RAC for another 24 h. After that, cells were rinsed twice with PBS, resuspended in 200 μL of Annexin-binding buffer, and finally stained with Annexin-V FITC and PI (5 μL each) for 10 min at 37°C in darkness. After adding 400 μL of Annexin-binding buffer, the signal intensity was measured using a FACSCalibur (Becton Dickinson, CA, USA) flow cytometry within 1 h, and data was analyzed with FlowJo software (Ashland, OR, USA).

GES-1 cells [2] = assay: apoptosis assay, Annexin-V FITC/PI flow cytometry; type: cell-based, human; details: for apoptotic rate: 24 h
Method: as §1, §2

[3] = in vitro simulated oral, gastric and intestinal digestion of RAC (HPLC); type: in vitro ADME
Method: The simulated oral, gastric, and intestinal digestion experiments of RAC were carried out according to Mamone et al. ([39]) with minor adjustments. One milliliter of RAC (1 mg/mL) was mixed with 4 mL SSF and stirred at 170 rpm for 2 min in lightproof condition to mimic the oral phase digestion. Based on the oral stage, 10 mL of SGF was added and reacted for another 2 h under the same condition to imitate the gastric phase digestion. To investigate the intestinal phase digestion, 20 mL of SIF was further added, and the mixture was stirred for another 2 h after simulated gastric digestion. For each stage, the same volume of deionized water was used in place of the corresponding digestive fluid as the control. At the end of each stage, 0.8 mL of the mixture was withdrawn and diluted with MeOH to 1.0 mL for HPLC analysis.
The standard curve of RAC was prepared as follows: one milligram of RAC was dissolved with MeOH to a final concentration of 1 mg/mL. The above solution was further used to prepare a series of RAC concentrations at 0.02, 0.04, 0.08, 0.2, and 1.0 mg/mL, respectively. The HPLC conditions for the determination of the content of RAC in the digestion mixture and the preparation of the standard curve of RAC were the same as those for the analysis of RAC, except that the detection wavelength was at 358 nm.

[4] = cell survival, CCK-8 assay; type: cell-based, human; details: human; for viability at 24 h, 140 µM: incubation 24 h, read-out: cell viability (viable cell number); for IC50 at 48 h: read-out: IC50 (cytotoxicity)
Method: as §1
(§3) The effects of ACR and RAC on cell survival (both Caco-2 and GES-1 cells) were measured by the CCK-8 assay ([41]). Briefly, cells (1 × 10^4 cells/well) were seeded into a 96-well plate and cultivated overnight. […] After cells were rinsed twice with PBS and resuspended in 100 μL of DMEM supplemented with 10% FBS, 10 μL of CCK-8 solution was added into each well and the plate was maintained for 1 h in the incubator. The plate was read at 450 nm on a microplate reader (BioTek, Epoch 2, USA), and all experiments were performed thrice. Cell viability was expressed as a percentage of the control group as shown below:
(§4) Cell viability (%) = A sample/A control × 100%
(§5) Where A sample was the absorbance (Abs) of the cells incubated with different concentrations of sample solutions, and A control was the Abs of the cells incubated without sample solution.

Caco-2 cells [5] = assay: cell survival, CCK-8 assay; type: cell-based, human; details: for cell viability (viable cell number): incubation 24 h
Method: as §1, §3, §4, §5

GES-1 cells [6] = assay: cell survival, CCK-8 assay; type: cell-based, human; details: for cell viability (viable cell number): incubation 24 h
Method: as §1, §3, §4, §5

Caco-2 cells [7] = assay: JC-1 staining, mitochondrial membrane potential (MMP); type: cell-based, human; details: 24 h
Method: as §1
(§6) After incubation with different concentrations of samples, the changes of MMP in Caco-2 and GES-1 cells were measured in accordance with Liu et al., with slight modifications ([43]). In brief, cells (1 × 10^4 cells/well) were exposed to different concentrations of ACR and RAC for 24 h, respectively. Then 500 μL of JC-1 staining solution was added into each well and the plate was further incubated at 37°C for 15 min. Cells were then rinsed twice with 1 mL of staining buffer and resuspended with 500 μL of staining buffer prior to MMP determination in the flow cytometry.

GES-1 cells [8] = assay: as above; type: cell-based, human; details: 24 h
Method: as §1, §6

[9] = set-up: method as in PMID 19743801; details: simulated physiological conditions ref 21; cited from earlier work
[10] = incubating with equal concentrations of ACR for 12 h at 37°C ref 25; cited from earlier work

Compound: CC1OC(OCC2OC(Oc3c(-c4ccc(O)c(O)c4)oc4c5c(cc(O)c4c3=O)OC(O)CC5)C(O)C(O)C2O)C(O)C(O)C1O (racemic) [RAC]
- apoptotic cells (Caco-2 cells [1]; Caco-2, 20 μM): 8.3%
- apoptotic cells (Caco-2 cells [1]; Caco-2, 60 μM): 10.81%
- apoptotic rate, fold below the 60 μM ACR-treated group (GES-1 cells [2]; GES-1, 60 μM): 5.4 fold
- apoptotic rate (GES-1 cells [2]; GES-1, 60 μM): 12.59%
- The amount of RAC ([3]; Initial): 2.99 ± 0.01 mg
- Decrease of RAC ([3]; SGF 30 min (gastric)): 16.39%
- The amount of RAC ([3]; SGF 30 min (gastric)): 2.50 ± 0.06 mg and 2.50 ± 0.06 a mg
- Decrease of RAC ([3]; SGF 60 min (gastric)): 16.05%
- The amount of RAC ([3]; SGF 60 min (gastric)): 2.51 ± 0.04 a mg
- The content of RAC ([3]; SGF 60 min (gastric)): 0.167 ± 0.0028 mg/mL
- Decrease of RAC ([3]; SGF 90 min (gastric)): 21.07%
- The amount of RAC ([3]; SGF 90 min (gastric)): 2.36 ± 0.04 b mg
- The content of RAC ([3]; SGF 90 min (gastric)): 0.157 ± 0.0029 mg/mL
- Decrease of RAC ([3]; SGF 120 min (gastric)): 24.41%
- The amount of RAC ([3]; SGF 120 min (gastric)): 2.26 ± 0.03 b mg
- Decrease of RAC ([3]; SIF 30 min (intestinal)): 13.38%
- The amount of RAC ([3]; SIF 30 min (intestinal)): 2.59 ± 0.01 a mg
- The content of RAC ([3]; SIF 30 min (intestinal)): 0.074 ± 0.0002 mg/mL
- Decrease of RAC ([3]; SIF 60 min (intestinal)): 14.72%
- The amount of RAC ([3]; SIF 60 min (intestinal)): 2.55 ± 0.01 b mg
- The content of RAC ([3]; SIF 60 min (intestinal)): 0.073 ± 0.0002 mg/mL
- Decrease of RAC ([3]; SIF 90 min (intestinal)): 14.38%
- The amount of RAC ([3]; SIF 90 min (intestinal)): 2.56 ± 0.01 b mg
- The content of RAC ([3]; SIF 90 min (intestinal)): 0.073 ± 0.0002 mg/mL
- Decrease of RAC ([3]; SIF 120 min (intestinal)): 16.39%
- The amount of RAC ([3]; SIF 120 min (intestinal)): 2.50 ± 0.01 mg and 2.50 ± 0.01 c mg
- The content of RAC ([3]; SIF 120 min (intestinal)): 0.072 ± 0.0004 mg/mL
- Decrease of RAC ([3]; SSF 2 min (oral)): 0.33%
- The amount of RAC ([3]; SSF 2 min (oral)): 2.98 ± 0.01 mg
- The content of RAC ([3]; SSF 2 min (oral)): 0.595 ± 0.0018 mg/mL
- viability at 24 h, 140 µM ([4]; Caco-2 cells, Caco-2, 140 μM): > 75%
- IC50 at 48 h ([4]; Caco-2 cells, Caco-2, CCK-8): > 140 µM
- viability at 24 h, 140 µM ([4]; GES-1 cells, GES-1, 140 μM): > 75%
- IC50 at 48 h ([4]; GES-1 cells, GES-1, CCK-8): > 140 µM
- viability of RAC-treated cells, fold higher than ACR-treated cells (Caco-2 cells [5]; Caco-2): 10 fold
- viability of RAC-treated cells, fold higher than ACR-treated cells (GES-1 cells [6]; GES-1): 6.5 fold
- ratio of red/green fluorescence intensity (Caco-2 cells [7]; Caco-2, 20 μM): 17.64 ± 0.69
- ratio of red/green fluorescence intensity (Caco-2 cells [7]; Caco-2, 40 μM): 15.16 ± 0.59
- ratio of red/green fluorescence intensity (Caco-2 cells [7]; Caco-2, 60 μM): 9.47 and 9.47 ± 0.37
- ratio of red/green fluorescence intensity (GES-1 cells [8]; GES-1, 20 μM): 13.32 ± 0.43
- ratio of red/green fluorescence intensity (GES-1 cells [8]; GES-1, 40 μM): 10.59 ± 0.33
- ratio of red/green fluorescence intensity (GES-1 cells [8]; GES-1, 60 μM): 6.72 and 6.72 ± 0.30

Compound: O=C(CCc1ccc(O)cc1)c1c(O)cc(O)cc1O [phloretin]
- ACR quenched [9]: more than 99%

Compound: C=CC=O [ACR, Acrolein]
- apoptotic cells (Caco-2 cells [1]; Caco-2, 20 μM): 12.19%
- number of viable cells (Caco-2 cells [1]; Caco-2, 20 μM): 87.5%
- apoptotic cells (Caco-2 cells [1]; Caco-2, 40 μM): 28.59%
- number of viable cells (Caco-2 cells [1]; Caco-2, 40 μM): 71.3%
- apoptotic rate, times higher than that of the same concentration of RAC (Caco-2 cells [1]; Caco-2, 60 μM): 5.5 times
- apoptotic cells (Caco-2 cells [1]; Caco-2, 60 μM): 59.50%
- number of viable cells (Caco-2 cells [1]; Caco-2, 60 μM): 40.0%
- apoptotic rate (GES-1 cells [2]; GES-1, 20 μM): 16.28%
- apoptotic rate (GES-1 cells [2]; GES-1, 60 μM): 68.10%
- cell viability (viable cell number) (Caco-2 cells [5]; Caco-2, 20 μM): 31.83%
- cell viability (viable cell number) (Caco-2 cells [5]; Caco-2, 140 μM): 6.97%
- IC50 (Caco-2 cells [5]; Caco-2, CCK-8, read-out: IC50 (cytotoxicity)): < 20 µM
- cell viability (viable cell number) (GES-1 cells [6]; GES-1, 20 μM): 49.57%
- cell viability (viable cell number) (GES-1 cells [6]; GES-1, 140 μM): 11.22%
- IC50 (GES-1 cells [6]; GES-1, CCK-8, read-out: IC50 (cytotoxicity)): < 20 µM
- decrease of viable cell number (GES-1 cells [6]; GES-1, up to 140 μM, 24 h as printed): 88.78%
- ratio of red/green fluorescence intensity (Caco-2 cells [7]; Caco-2, 20 μM): 5.32
- ratio of red/green fluorescence intensity (Caco-2 cells [7]; Caco-2, 20 μM, listed as Acrolein): 5.32 ± 0.17
- ratio of red/green fluorescence intensity (Caco-2 cells [7]; Caco-2, 40 μM): 2.88 ± 0.09
- ratio of red/green fluorescence intensity (Caco-2 cells [7]; Caco-2, 60 μM): 1.97
- ratio of red/green fluorescence intensity (Caco-2 cells [7]; Caco-2, 60 μM, listed as Acrolein): 1.97 ± 0.06
- ratio of red/green fluorescence intensity (GES-1 cells [8]; GES-1, 20 μM): 5.68
- ratio of red/green fluorescence intensity (GES-1 cells [8]; GES-1, 20 μM, listed as Acrolein): 5.68 ± 0.24
- ratio of red/green fluorescence intensity (GES-1 cells [8]; GES-1, 40 μM): 4.29 ± 0.17
- ratio of red/green fluorescence intensity (GES-1 cells [8]; GES-1, 60 μM): 2.13
- ratio of red/green fluorescence intensity (GES-1 cells [8]; GES-1, 60 μM, listed as Acrolein): 2.13 ± 0.10

Compound: COc1ccc([C@@H]2CC(=O)c3c(O)cc(O)cc3O2)cc1O [hesperetin]
- ACR eliminated [10]: 94.87%
